According to EP4659739A9, “TOPICAL FORMULATION COMPRISING NON-COVALENT KERATIN-ACTIVE AGENT CONJUGATES FOR THERAPEUTIC USE” (Rigi Therapeutics AG, priority 2024, dated 2025):

Assays:
[1] = test system: Chorion-Allantois-Membran; assay: HET-CAM, preclinical tolerability; parameters: species or system Gallus gallus domesticus
Description: Als Screening hinsichtlich der Hautverträglichkeit der Keratinpartikel wurde dieses in eine halbfeste Formulierung eingearbeitet und an der Chorion-Allantois-Membran von acht- bis neuntägigen Gallus gallus domesticus Embryonen (Rasse: New Hampshire) getestet.
Die Hautverträglichkeit der Keratinpartikel wurde an der Chorion-Allantois-Membran von acht- bis neuntägigen Hühnerembryonen getestet. Befruchtete Hühnereier wurden hierfür acht bis neun Tage lang bei 37°C und 55 % Luftfeuchtigkeit bebrütet. Alle 12 Stunden wurden die Eier gewendet, ausgenommen die letzten 24 Stunden vor Versuchsbeginn. Die Öffnung der Eier wurde an den nach oben gerichteten Eierpolen durchgeführt, wofür die Eierschalen kreisrund (Ø 1,5 cm) geöffnet wurden. Nach dem Abnehmen der Eischalen wurden die Eihäute mit einer 37°C warmen 0,9%-igen NaCl-Lösung befeuchtet. Anschließend wurden unter der Sterilbank die äußeren Eihäute mittels Schere und Pinzette entfernt und die Chorion-Allantois-Membranen freigelegt. […] Die halbfeste Keratinpartikel-haltige Formulierung konnte nun an den gut ausgebildeten und unbeschädigten Blutgefäßen der Chorion-Allantois-Membranen aufgetragen und getestet werden. Das Testpräparat wurde an insgesamt sechs Eiern getestet, maximal 30 Minuten nach der Öffnung der Eier.
Im Rahmen der HET-CAM Untersuchungen wurden von dem Testpräparat (2,88 mg/ml kolloidale Keratin-Lösung in 0,5 % Hydoxyethylcellulose-Gel) je 200 µl auf die Chorion-Allantois-Membran appliziert und diese für insgesamt 300 Sekunden beobachtet. Während dieser Zeit wurden die Veränderungen an der Membran, hinsichtlich des Zeitpunktes des Auftretens (Irritationsscore, IS) und der Festlegung des Schweregrades zum Ende der Beobachtungszeit, dokumentiert. Hierbei wurden folgende Kriterien bewertet: Hämorrhagien (H) - das Auftreten von Blutungen; Gefäßlyse (L) - das Transparentwerden von Gefäßen und Koagulation (C) - das Stagnieren des Blutflusses als Zeichen der intravasalen Gerinnung. Als Negativkontrolle wurde steriles Wasser und als Positivkontrolle eine 1 %-ige Natriumlaurysulfat-Lösung eingesetzt. Die Berechnung des Irritationsscores (IS) erfolgte anhand der ICCVAM-Kriterien.
Als Bewertungskriterien des ISs wurden folgende Grenzwerte definiert:
Der Schweregrad von Veränderungen zum Ende des Beobachtungszeitraums wurde nach den folgenden Kriterien eingestuft:
Die Hämorrhagie (H) wurde entsprechend des Ausmaßes von Erythrozytenextravasaten den Kategorien halbquantitativ wie folgt zugeordnet: Einzelne Kapillarblutungen bei morphologisch intakten Kapillaren wurden als leichte, multiple Kapillarblutungen bei morphologisch intakten Kapillaren als mäßige und morphologisch geschädigte Kapillaren mit Kapillarblutungen oder Massenblutungen als schwere Hämorrhagie eingestuft. Vereinzelte transparente Kapillarabschnitte wurden als leichte, die Transparenz von ganzen Kapillaren als mäßige und das Auftreten von kompletten Gefäßlysen als schwere Lyse bewertet. Die Koagulation (C) wurde entsprechend des Ausmaßes von Koagulationsphänomenen den Kategorien halbquantitativ wie folgt zugeordnet: Einzelne Kapillarthrombosen bei morphologisch intakten Kapillaren wurden als leichte, multiple Kapillarthrombosen bei morphologisch intakten Kapillaren als mäßige und geschädigte Kapillaren mit langstreckigen Kapillarthrombosen als schwere C eingestuft. Die eingesetzten Hühnereier wurden nach einer Lagerung für 48 Stunden bei -20°C, hygienisch entsorgt. Tab.

[2] = Penetration kinetics of Mometasonfuroat, Franz diffusion cell, HPLC; format: in vitro ADME, human
Description: Um den Einfluss von monomerem beta-Keratin auf die Pharmakokinetik von Wirkstoffen nachzuweisen, wurde in einer halbfesten Cremematrix (Monovo® 1 mg/g Creme) gelöstes Mometasonfuroat, als Modellwirkstoff mit 2% Keratinpartikeln versetzt und zur Ausbildung von nicht-kovalenten Proteine-Wirkstoff-Konjugaten homogen verrührt und inkubiert. Zur Objektivierung der pharmakokinetischen Unterschiede wurde eine Diffusionskinetik der Formulierung ohne und mit Beimischung von Keratinpartikeln vergleichend bestimmt.
In der vorliegenden Studie wurde eine HPLC-Methode zur Quantifizierung von Mometasonfuroat in Proben aus der Penetrationsstudie verwendet. Es wurde eine analytische HPLC-UV-Methode entwickelt und validiert. Zur Bestimmung der Wiederfindung wurden dazu 3 Proben der Prüfformulierung mit 1,8 mL Lösungsmittel 1 h lang inkubiert (Laborschüttler, 150 U/min), anschließend zentrifugiert (13.000 U/min, 10 min) und gemessen. Die Wiederfindungsraten wurden mit den experimentell ermittelten Konzentrationen der Prüfgegenstände berechnet. Werte zwischen 95 % und 105 % wurden als unbeeinflusst und damit als korrekt angenommen.
Für jede Testformulierung wurden drei Humanhautproben, d. h. von drei verschiedenen Spendern untersucht. Jede Hautprobe ergab drei Stanzbiopsien zu drei verschiedenen Zeitpunkten, d. h. insgesamt […] Proben je Testformulierung. […]

[3] = summary Tab. 7, mean severity after 300 s

Row | Compound | IS-C ([1]; summary Tab. 7) | IS-Gesamt ([1]; summary Tab. 7) | IS-H ([1]; summary Tab. 7) | IS-L ([1]; summary Tab. 7) | SG-C [1, 3] | SG-H [1, 3] | SG-L [1, 3] | kutane Bioverfügbarkeit [2]
1 | CCCCCCCCCCCCOS(=O)(=O)O [1 % Natriumlaurylsulfat-Lösung, Natriumlaurylsulfat] | 6,01 | 9,80 | 2,89 | 0,90 | 3,00 | 1,67 | 0,42 | 
2 | C[C@@H]1C[C@H]2[C@@H]3CCC4=CC(=O)C=C[C@]4(C)[C@@]3(Cl)[C@@H](O)C[C@]2(C)[C@@]1(OC(=O)c1ccco1)C(=O)CCl [Mometasonfuroat] |  |  |  |  |  |  |  | keinen relevanten Einfluss
